We go through 34 molecules from the SangsterLogP compilation.

Turning to `CCCCCCC(C)(C)c1cc(O)c2c(c1)OC(C)(C)C1CCC(CO)=CC21` (centres undefined), the logP was found to be 7.83. To `CC(=O)Oc1cc(O[C@H](C)CCCc2ccccc2)cc2c1[C@@H]1C[C@H](O)CC[C@H]1[C@H](C)N2` belongs 5.7; to `CCCCCc1cc(O)c2c(c1)OC(C)(C)[C@@H]1CC=C(C(=O)O)C[C@@H]21`, 3.51. `CC(=O)Oc1cc(OC(C)CCCc2ccccc2)cc2c1C1CC(O)CCC1C(C)N2C` (centres undefined): the logP turned out to be 5.72. To `CCCCCCC(C)(C)c1cc(O)c2c(c1)OC(C)(C)C1CC=C(C)CC21` (centres undefined) belongs 9.96.

In the case of `C=C(C)[C@@H]1CCC(C)=C[C@H]1c1c(O)cc(CCCCC)cc1O`, the log partition coefficient (logP) came to 5.79. The figure for `CCCCC(C)(C)c1ccc(C2CCCC(O)C2)c(O)c1` (centres undefined) is 5.43; for `CC(C)(C)c1ccc(C2CCCC(O)C2)c(O)c1` (centres undefined) it is 4.05; for `CCCCCCC(C)(C)c1cc(O)c2c(c1)OC(C)(C)C1CCC(C=O)=CC21` (centres undefined) it is 8.03. The figure for `CCCC(C)(C)c1ccc(C2CCCC(O)C2)c(O)c1` (centres undefined) is 4.82. The figure for `CCCCCCC(C)(C)c1ccc([C@@H]2C[C@H](O)C[C@@H]3CC[C@H](CO)C[C@H]32)c(O)c1` is 6.13; for `CCCCCC(C)(C)c1ccc([C@H]2CCC[C@@H](O)C2)c(O)c1` it is 5.97; for `CCCCCc1cc(OCCCCCN2CC(=O)c3ccccc3C2=O)c2c(c1)OC(C)(C)C1CC=C(C)CC21` (centres undefined) it is 9.07. In turn, `CCCCCCC(C)(C)c1ccc(C2CC(O)CCC2CCCCO)c(O)c1` (centres undefined) came in with a logP of 6.68. To `CCCCCCCCC(C)(C)c1ccc([C@H]2CCC[C@@H](O)C2)c(O)c1` belongs 8.16; to `CCCCCCC(C)(C)c1ccc(C2CC(O)CCC2C)c(O)c1` (centres undefined), 7.49; to `CCCCCc1cc(O)c2c(c1)OC(C)(C)[C@@H]1CCC(CO)=C[C@@H]21`, 5.33. To `CCCCCCC(C)(C)c1ccc(C2CCCC(O)C2)c(O)c1` (centres undefined) belongs 6.68.

On to `CCCCCCCC(C)(C)c1ccc([C@H]2CCC[C@@H](O)C2)c(O)c1`, for which the logP was found to be 7.18. The figure for `CCCCCCC(C)(C)c1ccc(C2CC(O)CCC2CCCO)c(O)c1` (centres undefined) is 6.13. To `CCCCCCCCCCC(C)(C)c1ccc(C2CCCC(O)C2)c(O)c1` (centres undefined) belongs 8.42.

Regarding `CCCCCC(C)C(C)c1cc(O)c2c(c1)OC(C)(C)C1=C2CC(C)CC1` (centres undefined), the logP came out at 8.3. The figure for `C=C1CCC2C(C1)c1c(OC)cc(CCCCC)cc1OC2(C)C` (centres undefined) is 7.62; for `CCCCCc1cc(O)c2c(c1)OC(C)(C)c1ccc(C)cc1-2` it is 6.23; for `CCC(C)(C)c1ccc(C2CCCC(O)C2)c(O)c1` (centres undefined) it is 4.32.

`CC1=CCC2C(C1)c1c(O)cc(NS(C)(=O)=O)cc1OC2(C)C` (centres undefined) showed a logP of 3.12.

Molecule `CCCCCc1cc(O)c2c(c1)OC(C)(C)C1CC=C(C)CC21` (centres undefined) yielded a logP of 7.41.

Consider `C=C1CC[C@@H]2[C@@H](C1)c1c(OCc3ccc(-c4ccccc4)cc3)cc(CCCCC)cc1OC2(C)C`, for which the log partition coefficient (logP) was 11.3. Regarding `C=C1C[C@H]2c3c(O)cc(CCCCC)cc3OC(C)(C)[C@@H]2C[C@H]1O`, the logP is 4.24. The figure for `CCCCCc1cc(OCCCCN)c2c(c1)OC(C)(C)C1CC=C(C)CC21` (centres undefined) is 8.38; for `CCCCCc1cc(OC)c2c(c1)OC(C)(C)[C@@H]1CC=C(C)C[C@@H]21` it is 8.06. The figure for `C=C1CCC2C(C1)c1c(OC)cc(CCC)cc1OC2(C)C` (centres undefined) is 6.26; for `CCCCCc1cc(OCc2ccc(-c3ccccc3)cc2)c2c(c1)OC(C)(C)C1CC=C(C)CC21` (centres undefined) it is 10.9. Consider `CCCCCCC(C)(C)c1cc(O)c2c(c1)OC(C)(C)C1CC=C(CO)CC21` (centres undefined), for which the logP was found to be 7.44.

In general, logP refers to the decadic logarithm of the partition coefficient of the neutral form, usually between octanol and water. A low value points to lower lipophilicity.
